≈ marks a conversion by molar mass, not a printed value.
Test: Solubility (maximum soluble amount) in acetonitrile solution including 0.1 M TBAPF6
Assay type: physicochemical
Conditions: for solubility: acetonitrile solution including 0.1 M TBAPF6, organic solvent or mixture, maximum soluble amount in acetonitrile solution including TBAPF6 at 0.1 M
Protocol: Each of the phenazine-based compounds provided according to Example 1 and Comparative Example 1 was dissolved in an acetonitrile solution including TBAPF6 at a concentration of 0.1 M, and the maximum soluble amounts of the phenazine-based compounds were identified, and the results are shown in the following Table 1.

Row | solubility [mM] | fold higher solubility in a non-aqueous solvent than DMPZ (non-aqueous solvent, relative to DMPZ) | Structure (SMILES)
1 | 50 (≈ 10.5 mg/mL) |  | CN1c2ccccc2N(C)c2ccccc21 [Comparative Example 1, 5,10-dimethyl-5,10-dihydrophenazine, reference compound]
2 | 500 (≈ 149 mg/mL) | at least 10 fold | COCCN1c2ccccc2N(CCOC)c2ccccc21 [Example 1, 5,10-bis(2-methoxyethyl)-5,10-dihydrophenazine]
